Experimental findings from patent US11040981B2, “Pyrrolotriazine compounds and methods of inhibiting TAM kinases” (Syros Pharmaceuticals, Inc., priority 2017, dated 2021) are described below.

pIC50: −log10 of the molar value. Some results are limits rather than exact numbers.

In one experiment the target is T1, FLT3 (Homo sapiens, UniProt P36888).
T1 sequence (P36888 27-993): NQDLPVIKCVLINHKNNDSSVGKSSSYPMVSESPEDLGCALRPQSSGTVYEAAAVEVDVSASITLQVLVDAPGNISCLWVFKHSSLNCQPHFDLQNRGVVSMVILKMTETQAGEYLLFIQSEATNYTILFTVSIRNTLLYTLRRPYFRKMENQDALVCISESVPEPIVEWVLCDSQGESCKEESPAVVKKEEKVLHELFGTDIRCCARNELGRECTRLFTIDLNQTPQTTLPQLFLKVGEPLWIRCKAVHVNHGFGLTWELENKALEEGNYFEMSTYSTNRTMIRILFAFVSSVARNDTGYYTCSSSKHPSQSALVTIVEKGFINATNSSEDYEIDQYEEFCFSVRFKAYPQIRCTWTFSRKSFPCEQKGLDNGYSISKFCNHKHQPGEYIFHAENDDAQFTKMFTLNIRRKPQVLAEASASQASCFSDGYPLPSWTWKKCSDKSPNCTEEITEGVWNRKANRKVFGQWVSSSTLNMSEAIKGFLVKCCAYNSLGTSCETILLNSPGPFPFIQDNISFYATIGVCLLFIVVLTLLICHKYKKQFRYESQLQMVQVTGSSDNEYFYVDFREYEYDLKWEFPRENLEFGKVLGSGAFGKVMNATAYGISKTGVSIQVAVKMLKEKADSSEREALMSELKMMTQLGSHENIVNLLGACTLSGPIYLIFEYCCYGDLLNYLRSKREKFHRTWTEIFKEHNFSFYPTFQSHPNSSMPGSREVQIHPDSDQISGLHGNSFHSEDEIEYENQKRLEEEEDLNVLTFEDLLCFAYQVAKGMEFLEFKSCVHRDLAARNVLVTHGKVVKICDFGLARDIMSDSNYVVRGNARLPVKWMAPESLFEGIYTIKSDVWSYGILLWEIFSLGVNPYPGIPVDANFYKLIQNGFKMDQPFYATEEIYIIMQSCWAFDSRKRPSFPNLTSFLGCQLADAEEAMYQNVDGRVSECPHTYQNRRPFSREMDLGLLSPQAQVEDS
Briefly: TR-FRET kinase activity assay, FLT3. Format: biochemical. The settings on record: ATP at Km, 60 minutes. As to the method:
(§1) IC50 values for compound inhibition of AXL, FLT3, MERTK and TYRO3 activity were determined by using a TR-FRET activity assay. A polypeptide substrate with a fluorescent label is phosphorylated on a tyrosine by each enzyme, where the now phosphorylated product is bound by a Europium-labeled antibody specific to that phosphorylation site. The proximity between the antibody and the substrate gives a signal known as TR-FRET. As the enzyme is inhibited by compound, less phosphorylated peptide product is made causing a decrease in overall signal.
(§2) Activity assays were performed in a 384-well, small volume, black microplates in an active enzyme volume of 10 μL and final developed volume of 20 μL. Final assay conditions are 50 mM HEPES pH 7.5, 10 mM MgCl2, 1 mM EGTA, 0.01% Brij 35 and 1 mM DTT all at RT. Enzyme, substrate labeled peptide and compound are mixed, and then the reaction is initiated with the addition of ATP at Km concentration for each enzyme. The reaction is allowed to run 60 minutes and then quenched with a 12.5 mM EDTA (ethylenediamine tetraacetic acid) solution. The plate is then developed with the addition of Europium labeled antibody for a final volume of 20 μL and is then incubated for 30 minutes in darkness. Plates are read in a Pherastar plate reader. Data is analyzed in GraphPad PRISM.
(§3) The results of these assays are shown in Table 1, below, wherein “No.” designates compound number (FIG. 1); “A” represents a value of ≤100 nM; “B” a value of >100 nM and ≤1 μM; “C” a value of >1 μM and ≤10 μM; “D” a value of >10 μM; “ND” is not determined. The ratio of Mer to FLT3 is calculated as follows: FLT3 IC50/Mer IC50. “+” represents a ratio of >2.0 and <10; “++” represents a ratio of between 10 and 100; and “+++” represents a ratio of >100.
For orientation: Time-resolved FRET reads energy transfer from a long-lived donor to a nearby acceptor.

For the next experiment, the target named is T2, AXL (Homo sapiens, UniProt P30530).
T2 sequence (P30530 26-894): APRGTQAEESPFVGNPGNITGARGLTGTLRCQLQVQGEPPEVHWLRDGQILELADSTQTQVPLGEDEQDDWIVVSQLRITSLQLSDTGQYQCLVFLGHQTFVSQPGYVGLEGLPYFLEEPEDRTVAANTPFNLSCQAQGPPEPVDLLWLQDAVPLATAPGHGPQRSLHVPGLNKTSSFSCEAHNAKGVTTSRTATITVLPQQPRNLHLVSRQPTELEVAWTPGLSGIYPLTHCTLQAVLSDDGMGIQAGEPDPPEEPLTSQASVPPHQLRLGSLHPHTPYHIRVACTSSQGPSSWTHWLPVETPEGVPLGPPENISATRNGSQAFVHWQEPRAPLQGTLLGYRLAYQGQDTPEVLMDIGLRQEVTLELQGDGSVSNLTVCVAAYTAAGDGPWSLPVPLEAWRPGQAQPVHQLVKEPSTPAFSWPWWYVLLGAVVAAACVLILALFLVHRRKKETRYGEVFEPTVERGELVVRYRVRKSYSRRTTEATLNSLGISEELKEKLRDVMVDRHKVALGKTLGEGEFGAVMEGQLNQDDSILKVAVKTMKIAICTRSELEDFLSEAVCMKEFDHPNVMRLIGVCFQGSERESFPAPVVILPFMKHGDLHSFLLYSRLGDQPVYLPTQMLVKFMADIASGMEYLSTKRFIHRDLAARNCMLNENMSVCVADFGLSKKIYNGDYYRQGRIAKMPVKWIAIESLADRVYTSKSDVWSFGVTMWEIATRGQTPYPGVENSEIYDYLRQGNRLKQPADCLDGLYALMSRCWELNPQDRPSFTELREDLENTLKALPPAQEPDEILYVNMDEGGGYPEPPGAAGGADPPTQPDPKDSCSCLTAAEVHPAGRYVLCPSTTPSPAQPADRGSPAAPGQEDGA
Briefly: TR-FRET kinase activity assay, AXL. The format is biochemical. The settings on record: ATP at Km, 60 minutes. As to the method:
as §1, §2, §3

Consider `COC[C@H](C)Nc1ncc2c(-c3cnn(CC4(C#N)CC4)c3)cc([C@H]3CC[C@H](O)CC3)n2n1` [Compound 266], for which the figures for the pIC50 against FLT3 and on AXL were 6.00 to 7.00 and not below 7.00, respectively.

On to `COC[C@H](C)Nc1ncc2c(-c3cncc(CN4CCOCC4)c3)cc([C@H]3CC[C@H](O)CC3)n2n1` [Compound 219], for which the pIC50 – broadly, the negative decadic logarithm of the IC50, by convention in mol/L – on FLT3 is 5.00 to 6.00; on AXL, 6.00 to 7.00.

Regarding `COC[C@H](C)Nc1ncc2c(-c3cccc(CN4CC[C@@H](F)C4)c3)cc([C@H]3CC[C@H](O)CC3)n2n1` [Compound 224], the pIC50 on FLT3 and against AXL was 6.00 to 7.00 throughout.

`Cc1cc(-c2cc([C@H]3CC[C@H](O)CC3)n3nc(N[C@@H](C)CC(F)(F)F)ncc23)cnn1` [Compound 268]: the pIC50 at FLT3 and on AXL was 6.00 to 7.00 each time.

Take `C[C@H](Nc1ncc2c(-c3ccc(CN4CCOCC4)cc3)cc([C@H]3CC[C@H](O)CC3)n2n1)[C@@H]1CCCO1` [Compound 205]: the pIC50 at FLT3 and against AXL was 5.00 to 6.00 each time.

Turning to `COCCn1cc(-c2cc([C@H]3CC[C@H](O)CC3)n3nc(N[C@@H](C)CC(F)(F)F)ncc23)cn1` [Compound 262], the pIC50 against FLT3 and against AXL was not below 7.00 throughout.

On to `COC[C@H](C)Nc1ncc2c(-c3ccc4c(c3)CNC4=O)cc([C@H]3CC[C@H](O)CC3)n2n1` [Compound 252], for which the pIC50 on FLT3 and against AXL was 6.00 to 7.00 throughout.

With `COC[C@H](C)Nc1ncc2c(-c3ccnc(N4CCOCC4)c3)cc([C@H]3CC[C@H](O)CC3)n2n1` [Compound 259], the pIC50 at FLT3 is 6.00 to 7.00; against AXL, not below 7.00.

As to `C[C@@H](CC(F)(F)F)Nc1ncc2c(-c3ccc(CN4CCOCC4)cc3)cc([C@H]3CC[C@H](O)CC3)n2n1` [Compound 203], the pIC50 against FLT3 and against AXL was not below 7.00 in each case.

On to `COC[C@H](C)Nc1ncc2c(-c3ccnc(N4CCN(C)CC4)c3)cc([C@H]3CC[C@H](O)CC3)n2n1` [Compound 256], for which the values for the pIC50 against FLT3 and on AXL were 6.00 to 7.00 and not below 7.00, respectively.

With `COC[C@H](C)Nc1ncc2c(-c3cnc(C)o3)cc([C@H]3CC[C@H](O)CC3)n2n1` [Compound 261], the pIC50 is 5.00 to 6.00 on FLT3 and 6.00 to 7.00 against AXL.

As to `COC[C@H](C)Nc1ncc2c(-c3ccc(N4CCN(C)CC4)nc3)cc([C@H]3CC[C@H](O)CC3)n2n1` [Compound 271], the pIC50 against FLT3 and at AXL was not below 7.00 each time.

Take `COC[C@H](C)Nc1ncc2c(-c3cnn(CC(=O)N[C@H]4CCOC4)c3)cc([C@H]3CC[C@H](O)CC3)n2n1` [Compound 237]: the pIC50 against FLT3 and against AXL was 6.00 to 7.00 throughout.

As for `COC[C@H](C)Nc1ncc2c(-c3cncc(C#N)c3)cc([C@H]3CC[C@H](O)CC3)n2n1` [Compound 201], the pIC50 against FLT3 was 5.00 to 6.00; on AXL, 6.00 to 7.00.

As for `CCCCCC(C)Nc1ncc2c(C3=CCC(C(=O)N4CCOCC4)CC3)cc(C3CCC(O)CC3)n2n1` (mixture of isomers) [Compound 110], the pIC50 against FLT3 was 6.00 to 7.00; against AXL it was not below 7.00.

Consider `CCCCC[C@H](C)Nc1ncc2c([C@H]3CC[C@H](C(=O)N4CCOCC4)CC3)cc([C@H]3CC[C@H](O)CC3)n2n1` [Compound 108], for which the pIC50 at FLT3 and at AXL was 6.00 to 7.00 each time.

Turning to `CC(C)OC[C@H](C)Nc1ncc2c(-c3ccc(CN4CCOCC4)cc3)cc([C@H]3CC[C@H](O)CC3)n2n1` [Compound 214], the negative-log IC50 (pIC50) is 5.00 to 6.00 against FLT3 and 6.00 to 7.00 on AXL.

`COC[C@H](C)Nc1ncc2c(-c3cnnc(C)c3)cc([C@H]3CC[C@H](O)CC3)n2n1` [Compound 267]: the values for the pIC50 at FLT3 and against AXL were 5.00 to 6.00 and 6.00 to 7.00, respectively.

For `CCCCC[C@H](C)Nc1ncc2c([C@H]3CC[C@@H](C(=O)N4CCOCC4)CC3)cc([C@H]3CC[C@H](O)CC3)n2n1` [Compound 109, ((cis)-4-(2-((S)-heptan-2-ylamino)-7-((trans)-4-hydroxycyclohexyl)pyrrolo[2,1-f][1,2,4]triazin-5-yl)cyclohexyl)(morpholino)methanone], the pIC50 at FLT3 is 6.00 to 7.00; against AXL, not below 7.00.

Regarding `CC(CCF)Nc1ncc2c(-c3ccc(CN4CCOCC4)cc3)cc(C3CCC(O)CC3)n2n1` (stereo not shown) [Compound 244], the pIC50 on FLT3 and at AXL was not below 7.00 in each case.

Regarding `COC[C@H](C)Nc1ncc2c(-c3cnn(CC(=O)N(C)C)c3)cc([C@H]3CC[C@H](O)CC3)n2n1` [Compound 238], the pIC50 against FLT3 and on AXL was 6.00 to 7.00 in each case.

Turning to `COC[C@H](C)Nc1ncc2c(-c3ccc(C(=O)N4CCOCC4)nc3)cc([C@H]3CC[C@H](O)CC3)n2n1` [Compound 227], the pIC50 against FLT3 is 5.00 to 6.00; against AXL, 6.00 to 7.00.

For the molecule `COC[C@H](C)Nc1ncc2c(-c3ccc(C(=O)N4CCS(=O)(=O)CC4)cc3)cc([C@H]3CC[C@H](O)CC3)n2n1` [Compound 197], the pIC50 was 6.00 to 7.00 against FLT3 and not below 7.00 against AXL.

Consider `COC[C@H](C)Nc1ncc2c(-c3cccc(CN4CCOCC4)c3)cc([C@H]3CC[C@H](O)CC3)n2n1` [Compound 217], for which the pIC50 on FLT3 and against AXL was 6.00 to 7.00 throughout.

Consider `COC[C@H](C)Nc1ncc2c(-c3cncc(C(=O)N4CCCC4)c3)cc([C@H]3CC[C@H](O)CC3)n2n1` [Compound 232], for which the pIC50 at FLT3 was 5.00 to 6.00; against AXL, 6.00 to 7.00.

Turning to `COCC(C)Nc1ncc2c(-c3cccc(C)n3)cc(C3CCC(O)CC3)n2n1` (stereo not shown) [Compound 253], the pIC50 against FLT3 and at AXL was 5.00 to 6.00 throughout.

Consider `COC[C@H](C)Nc1ncc2c(-c3cnn(CC(=O)NC(C)C)c3)cc([C@H]3CC[C@H](O)CC3)n2n1` [Compound 235], for which the pIC50 against FLT3 was 5.00 to 6.00; against AXL, 6.00 to 7.00.

For `COC[C@H](C)Nc1ncc2c(-c3cnn(CC(=O)N4CCCC4)c3)cc([C@H]3CC[C@H](O)CC3)n2n1` [Compound 239], the values for the pIC50 at FLT3 and at AXL were 6.00 to 7.00 and not below 7.00, respectively.

Consider `COCC(C)Nc1ncc2c(-c3cnn(C4COC4)c3)cc(C3CCC(O)CC3)n2n1` (stereo not shown) [Compound 221], for which the figures for the negative-log IC50 (pIC50) on FLT3 and at AXL were 6.00 to 7.00 and not below 7.00, respectively.
